Measured values published in ChEMBL document CHEMBL3991601, “The target landscape of clinical kinase drugs” (Science, 2017).
The source made the active and inactive calls.

Experiments:
[1] = target: Phosphatidylethanolamine-binding protein 1 (Homo sapiens, UniProt P30086)
[2] = target: T1, Cyclin-dependent kinase-like 5 (Homo sapiens, UniProt O76039)
T1 sequence (O76039 whole entry): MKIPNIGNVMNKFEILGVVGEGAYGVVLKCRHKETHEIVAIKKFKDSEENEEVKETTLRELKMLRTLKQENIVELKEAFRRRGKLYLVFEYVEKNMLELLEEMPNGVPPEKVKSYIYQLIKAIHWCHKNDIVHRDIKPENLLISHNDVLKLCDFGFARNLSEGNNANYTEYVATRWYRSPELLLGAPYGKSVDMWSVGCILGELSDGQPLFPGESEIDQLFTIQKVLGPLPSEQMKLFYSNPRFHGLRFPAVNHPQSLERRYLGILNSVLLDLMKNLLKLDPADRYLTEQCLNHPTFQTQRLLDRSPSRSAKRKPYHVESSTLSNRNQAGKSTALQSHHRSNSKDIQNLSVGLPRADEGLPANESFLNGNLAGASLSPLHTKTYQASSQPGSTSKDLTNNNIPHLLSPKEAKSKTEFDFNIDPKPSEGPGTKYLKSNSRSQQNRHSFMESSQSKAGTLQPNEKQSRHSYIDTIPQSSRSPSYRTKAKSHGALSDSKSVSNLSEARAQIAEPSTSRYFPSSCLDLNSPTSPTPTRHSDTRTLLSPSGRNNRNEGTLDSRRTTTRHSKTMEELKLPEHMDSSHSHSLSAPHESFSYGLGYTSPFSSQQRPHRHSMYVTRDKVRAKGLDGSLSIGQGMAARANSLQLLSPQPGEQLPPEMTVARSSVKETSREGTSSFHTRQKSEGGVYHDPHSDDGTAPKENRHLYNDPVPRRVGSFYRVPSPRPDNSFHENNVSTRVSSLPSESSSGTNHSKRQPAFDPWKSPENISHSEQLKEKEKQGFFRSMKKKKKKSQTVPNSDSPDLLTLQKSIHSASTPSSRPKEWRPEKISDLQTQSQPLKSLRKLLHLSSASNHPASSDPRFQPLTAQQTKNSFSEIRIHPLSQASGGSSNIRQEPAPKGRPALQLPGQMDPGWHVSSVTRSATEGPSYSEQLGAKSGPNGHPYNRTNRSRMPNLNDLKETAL

[3] = target: Uncharacterized aarF domain-containing protein kinase 5 (Homo sapiens, UniProt Q3MIX3)
Uncharacterized aarF domain-containing protein kinase 5, sequence (Q3MIX3 whole entry, the tested form may be a part): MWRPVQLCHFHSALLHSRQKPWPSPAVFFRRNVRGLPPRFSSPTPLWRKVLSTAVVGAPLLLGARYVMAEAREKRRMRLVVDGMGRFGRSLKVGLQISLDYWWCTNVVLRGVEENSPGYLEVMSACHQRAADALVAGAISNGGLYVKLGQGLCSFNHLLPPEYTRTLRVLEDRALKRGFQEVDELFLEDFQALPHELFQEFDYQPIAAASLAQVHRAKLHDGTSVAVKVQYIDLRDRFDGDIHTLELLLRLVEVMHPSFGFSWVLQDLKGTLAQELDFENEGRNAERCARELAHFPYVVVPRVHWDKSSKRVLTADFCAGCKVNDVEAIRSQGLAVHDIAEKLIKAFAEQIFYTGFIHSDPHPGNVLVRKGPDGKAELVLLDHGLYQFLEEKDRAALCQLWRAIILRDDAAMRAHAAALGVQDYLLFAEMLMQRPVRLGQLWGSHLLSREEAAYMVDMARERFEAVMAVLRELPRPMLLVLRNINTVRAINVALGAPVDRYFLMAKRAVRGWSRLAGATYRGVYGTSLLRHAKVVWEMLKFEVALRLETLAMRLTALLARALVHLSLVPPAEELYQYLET

[4] = target: PAS domain-containing serine/threonine-protein kinase (Homo sapiens, UniProt Q96RG2)
PAS domain-containing serine/threonine-protein kinase, sequence (Q96RG2 whole entry, the tested form may be a part): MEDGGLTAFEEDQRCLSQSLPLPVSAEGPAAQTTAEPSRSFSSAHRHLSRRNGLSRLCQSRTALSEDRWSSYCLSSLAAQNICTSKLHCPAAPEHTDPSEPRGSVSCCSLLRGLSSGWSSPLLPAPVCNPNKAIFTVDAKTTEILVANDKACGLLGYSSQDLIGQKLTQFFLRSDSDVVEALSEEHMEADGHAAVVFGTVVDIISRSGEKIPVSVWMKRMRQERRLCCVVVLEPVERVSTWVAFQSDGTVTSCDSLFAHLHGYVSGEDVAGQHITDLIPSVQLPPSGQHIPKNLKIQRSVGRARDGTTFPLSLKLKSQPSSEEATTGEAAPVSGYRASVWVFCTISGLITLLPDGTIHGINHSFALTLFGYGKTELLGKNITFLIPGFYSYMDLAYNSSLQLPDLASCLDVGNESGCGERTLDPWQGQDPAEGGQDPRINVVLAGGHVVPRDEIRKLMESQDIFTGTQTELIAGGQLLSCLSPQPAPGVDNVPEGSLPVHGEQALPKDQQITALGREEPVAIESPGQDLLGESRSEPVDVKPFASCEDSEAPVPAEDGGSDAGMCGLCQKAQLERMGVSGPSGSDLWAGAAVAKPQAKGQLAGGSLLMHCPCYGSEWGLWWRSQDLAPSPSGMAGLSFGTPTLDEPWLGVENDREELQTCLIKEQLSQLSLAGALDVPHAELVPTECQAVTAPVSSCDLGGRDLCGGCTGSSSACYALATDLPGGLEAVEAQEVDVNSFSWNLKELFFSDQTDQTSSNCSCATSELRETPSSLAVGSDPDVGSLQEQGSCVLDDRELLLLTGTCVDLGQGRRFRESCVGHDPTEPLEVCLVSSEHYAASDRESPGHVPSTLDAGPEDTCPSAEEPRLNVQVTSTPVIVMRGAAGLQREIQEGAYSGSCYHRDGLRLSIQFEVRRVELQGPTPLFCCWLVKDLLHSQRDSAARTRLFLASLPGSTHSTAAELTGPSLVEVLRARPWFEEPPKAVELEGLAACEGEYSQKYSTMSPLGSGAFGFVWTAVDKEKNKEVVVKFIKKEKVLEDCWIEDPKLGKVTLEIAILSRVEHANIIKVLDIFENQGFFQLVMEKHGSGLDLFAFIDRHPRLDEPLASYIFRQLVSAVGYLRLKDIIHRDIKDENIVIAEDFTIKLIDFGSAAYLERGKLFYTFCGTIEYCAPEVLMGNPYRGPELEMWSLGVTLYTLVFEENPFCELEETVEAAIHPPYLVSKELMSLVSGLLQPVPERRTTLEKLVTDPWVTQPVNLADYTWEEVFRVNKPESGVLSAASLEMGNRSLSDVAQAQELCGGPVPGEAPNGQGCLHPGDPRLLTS

[5] = target: Dual specificity testis-specific protein kinase 2 (Homo sapiens, UniProt Q96S53)
Dual specificity testis-specific protein kinase 2, sequence (Q96S53 whole entry): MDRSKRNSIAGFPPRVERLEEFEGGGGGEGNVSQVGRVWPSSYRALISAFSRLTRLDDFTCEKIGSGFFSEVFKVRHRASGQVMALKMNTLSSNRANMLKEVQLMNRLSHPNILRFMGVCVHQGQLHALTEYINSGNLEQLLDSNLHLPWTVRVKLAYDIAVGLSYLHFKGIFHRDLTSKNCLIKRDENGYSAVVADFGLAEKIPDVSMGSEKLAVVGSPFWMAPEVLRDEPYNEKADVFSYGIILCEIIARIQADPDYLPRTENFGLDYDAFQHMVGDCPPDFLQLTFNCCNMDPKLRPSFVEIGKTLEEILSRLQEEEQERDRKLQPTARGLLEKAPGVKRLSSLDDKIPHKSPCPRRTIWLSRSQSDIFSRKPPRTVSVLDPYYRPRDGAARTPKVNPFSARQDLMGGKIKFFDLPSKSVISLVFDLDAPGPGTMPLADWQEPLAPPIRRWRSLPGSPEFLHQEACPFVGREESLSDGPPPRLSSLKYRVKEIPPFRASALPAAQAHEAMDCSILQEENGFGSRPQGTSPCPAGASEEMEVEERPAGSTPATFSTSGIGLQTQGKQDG

[6] = target: T2, Eukaryotic translation initiation factor 5B (Homo sapiens, UniProt O60841)
T2 sequence (O60841 whole entry): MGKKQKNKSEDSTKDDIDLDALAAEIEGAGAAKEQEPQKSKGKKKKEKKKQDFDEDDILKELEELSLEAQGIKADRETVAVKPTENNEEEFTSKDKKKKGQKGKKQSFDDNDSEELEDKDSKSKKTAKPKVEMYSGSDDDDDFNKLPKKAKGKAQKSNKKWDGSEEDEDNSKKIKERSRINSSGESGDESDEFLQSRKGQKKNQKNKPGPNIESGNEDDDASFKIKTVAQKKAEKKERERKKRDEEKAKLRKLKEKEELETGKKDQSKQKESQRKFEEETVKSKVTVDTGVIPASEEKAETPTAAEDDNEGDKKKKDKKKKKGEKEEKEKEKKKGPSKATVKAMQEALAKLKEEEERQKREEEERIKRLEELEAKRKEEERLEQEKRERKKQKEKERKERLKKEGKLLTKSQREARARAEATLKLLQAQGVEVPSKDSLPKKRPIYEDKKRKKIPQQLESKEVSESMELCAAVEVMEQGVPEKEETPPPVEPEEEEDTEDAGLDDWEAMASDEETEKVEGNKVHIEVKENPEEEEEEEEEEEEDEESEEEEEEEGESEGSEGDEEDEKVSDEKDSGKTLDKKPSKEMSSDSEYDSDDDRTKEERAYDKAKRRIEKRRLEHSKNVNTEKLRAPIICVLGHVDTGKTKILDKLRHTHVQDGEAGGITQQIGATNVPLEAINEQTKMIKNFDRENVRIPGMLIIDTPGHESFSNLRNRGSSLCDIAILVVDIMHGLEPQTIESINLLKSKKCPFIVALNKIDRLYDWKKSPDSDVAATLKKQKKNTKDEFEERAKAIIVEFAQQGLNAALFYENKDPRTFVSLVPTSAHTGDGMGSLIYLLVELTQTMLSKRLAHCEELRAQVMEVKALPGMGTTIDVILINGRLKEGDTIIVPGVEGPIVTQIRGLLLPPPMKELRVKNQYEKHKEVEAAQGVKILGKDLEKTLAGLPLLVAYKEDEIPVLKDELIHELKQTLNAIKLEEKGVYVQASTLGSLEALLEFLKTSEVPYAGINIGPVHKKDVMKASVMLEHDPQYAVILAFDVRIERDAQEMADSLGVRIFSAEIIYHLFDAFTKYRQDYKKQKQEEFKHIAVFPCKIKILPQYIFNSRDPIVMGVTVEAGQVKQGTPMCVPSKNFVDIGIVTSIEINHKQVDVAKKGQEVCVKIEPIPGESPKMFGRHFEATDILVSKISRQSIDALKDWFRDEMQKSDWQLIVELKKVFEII

Measured: Kd
Note: in the data inactive means no Kd found up to 30 µM.

Phosphatidylethanolamine-binding protein 1, sequence (P30086 whole entry): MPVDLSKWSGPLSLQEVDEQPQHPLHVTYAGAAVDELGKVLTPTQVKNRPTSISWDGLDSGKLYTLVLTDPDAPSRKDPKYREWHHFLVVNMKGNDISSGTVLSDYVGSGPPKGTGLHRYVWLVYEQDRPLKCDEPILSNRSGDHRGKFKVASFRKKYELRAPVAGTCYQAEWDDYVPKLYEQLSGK

OCCn1cc(-c2cnc3nnn(Cc4ccc5ncccc5c4)c3n2)cn1 [PF-04217903]
inactive: [1] > 30 µM | [2] > 30 µM | [3] > 30 µM | [4] > 30 µM

CN1CCC(CNc2ccc3ncc(-c4cccc(OC(F)(F)F)c4)n3n2)CC1 [SGI-1776]
inactive: [5] > 30 µM | [2] > 30 µM | [4] > 30 µM

CC(C)Nc1cc(-c2c[nH]c(C(=O)N[C@H](CO)c3cccc(Cl)c3)c2)c(Cl)cn1 [ULIXERTINIB]
inactive: [5] > 30 µM | [2] > 30 µM | [3] > 30 µM | [4] > 30 µM

O=C(Nc1cccc(Cl)c1)Nc1ncc(CCNc2ncnc3ccsc23)s1 [SNS-314]
inactive: [6] > 30 µM | [1] > 30 µM | [2] > 30 µM | [3] > 30 µM

COC(=O)N[C@@H](C)CNc1nccc(-c2cn(C(C)C)nc2-c2cc(Cl)cc(NS(C)(=O)=O)c2F)n1 [ENCORAFENIB]
inactive: [6] > 30 µM | [1] > 30 µM | [5] > 30 µM | [2] > 30 µM | [3] > 30 µM | [4] > 30 µM

COCCNCc1ccc(-c2cc3nccc(Oc4ccc(NC(=S)NC(=O)Cc5ccc(F)cc5)cc4F)c3s2)nc1 [GLESATINIB]
inactive: [6] > 30 µM | [1] > 30 µM | [5] > 30 µM | [2] > 30 µM | [3] > 30 µM | [4] > 30 µM

O=C(O)[C@]1(Cc2cccc(Nc3nccs3)n2)CC[C@@H](Oc2cccc(Cl)c2F)CC1 [MK-5108]
inactive: [6] > 30 µM | [2] > 30 µM | [3] > 30 µM | [4] > 30 µM

N[C@@H]1CCCN(c2c(/C=C3\SC(=O)NC3=O)cccc2-c2ccccc2)C1
inactive: [6] > 30 µM | [1] > 30 µM | [2] > 30 µM | [3] > 30 µM

Cc1ccc(NC(=O)c2ccc(CN3CC[C@H](N(C)C)C3)c(C(F)(F)F)c2)cc1Nc1nccc(-c2cncnc2)n1 [BAFETINIB]
inactive: [1] > 30 µM | [5] > 30 µM | [2] > 30 µM | [3] > 30 µM | [4] > 30 µM

O=C(c1ccc(F)c(F)c1Nc1ccc(I)cc1F)N1CC(O)([C@@H]2CCCCN2)C1 [COBIMETINIB]
inactive: [6] > 30 µM | [1] > 30 µM | [5] > 30 µM | [2] > 30 µM

C[C@@H]1CN(Cc2ccc(F)cc2)[C@@H](C)CN1C(=O)c1cc2c(C(=O)C(=O)N(C)C)cn(C)c2cc1Cl [TALMAPIMOD]
inactive: [1] > 30 µM | [5] > 30 µM | [2] > 30 µM | [3] > 30 µM | [4] > 30 µM

Cc1cc(-c2cc(O)ccc2Cl)cc2nnc(Nc3ccc(OCCN4CCCC4)cc3)nc12
inactive: [5] > 30 µM | [2] > 30 µM | [3] > 30 µM | [4] > 30 µM

COc1cc(CCc2cc(NC(=O)c3ccc(N4C[C@@H](C)N[C@@H](C)C4)cc3)n[nH]2)cc(OC)c1 [AZD-4547]
inactive: [6] > 30 µM | [2] > 30 µM | [3] > 30 µM | [4] > 30 µM
